± gives the expanded uncertainty stated by the source.

The conditions of this series: Liquid; for mass density: 298.15 K, 101.33 kPa, Vibrating tube method; for Normal boiling temperature: Ebulliometric method (Recirculating still).

In the case of `CC12CCC(CC1)C(C)(C)O2` [1,3,3-trimethyl-2-oxabicyclo[2.2.2]octane], the mass density was 920.68 ± 0.12 kg/m3 and the Normal boiling temperature is 176.1 ± 0.4 °C.

Consider `CCO` [ethanol], for which the mass density is 785.27 ± 0.15 kg/m3 and the Normal boiling temperature came to 78.2 ± 0.4 °C.

For the origin of these results see the NIST ThermoML archive (doi:10.1016/j.jct.2016.01.008).
